Reference: patent US8680012B2, “4-phenyl-pyrane-3,5-diones,4-phenyl-thiopyrane-3,6-diones and cyclohexanetriones as novel herbicides” (Syngenta Crop Protection LLC, priority 2006, dated 2014)

Experiments:
Assay type in all cases: in vivo
[1] = test system: Alopecurus myosuroides (ALOMY); test: Example B post-emergence herbicidal activity, glasshouse pot test; conditions: 312 h, evaluated after 13 days, read-out: Post-emergence activity ALOMY (100=total damage to plant; 0=no damage to plant); for pest or weed control at 1000 g/ha: rate 1000 g/ha; for pest or weed control at 250 g/ha: rate 250 g/ha
In short: (§1)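 Damage rated 13 days after treatment on a 0 (no damage) to 100 (total damage) scale. Spray of acetone/water (50:50) with 0.5% Tween 20 went onto soil-sown pots at day 1 (pre-emergence) or day 8 (post-emergence); glasshouse kept at 24/16 °C, 14 h light, 65% humidity.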

[2] = test system: Echinochloa crus-galli (ECHCG); test: as above; conditions: 312 h, evaluated after 13 days, read-out: Post-emergence activity ECHCG (100=total damage to plant; 0=no damage to plant); for pest or weed control at 1000 g/ha: rate 1000 g/ha; for pest or weed control at 250 g/ha: rate 250 g/ha
In short: as §1

[3] = test system: Amaranthus retroflexus (AMARE); test: as above; conditions: 312 h, evaluated after 13 days, read-out: Post-emergence activity AMARE (100=total damage to plant; 0=no damage to plant); for pest or weed control at 1000 g/ha: rate 1000 g/ha; for pest or weed control at 250 g/ha: rate 250 g/ha
In short: as §1

Avena fatua (AVEFA) [4] = test: as above; conditions: 312 h, evaluated after 13 days, read-out: Post-emergence activity AVEFA (100=total damage to plant; 0=no damage to plant); for pest or weed control at 1000 g/ha: rate 1000 g/ha; for pest or weed control at 250 g/ha: rate 250 g/ha
In short: as §1

Solanum nigrum (SOLNI) [5] = test: as above; conditions: 312 h, evaluated after 13 days, read-out: Post-emergence activity SOLNI (100=total damage to plant; 0=no damage to plant); for pest or weed control at 1000 g/ha: rate 1000 g/ha; for pest or weed control at 250 g/ha: rate 250 g/ha
In short: as §1

Setaria faberi (SETFA) [6] = test: as above; conditions: 312 h, evaluated after 13 days, read-out: Post-emergence activity SETFA (100=total damage to plant; 0=no damage to plant); for pest or weed control at 1000 g/ha: rate 1000 g/ha; for pest or weed control at 250 g/ha: rate 250 g/ha
In short: as §1

[7] = test system: Alopecurus myosuroides (ALOMY); test: Example B pre-emergence herbicidal activity, glasshouse pot test; conditions: 312 h, evaluated after 13 days, read-out: Pre-emergence activity ALOMY (100=total damage to plant; 0=no damage to plant); for pest or weed control at 1000 g/ha: rate 1000 g/ha; for pest or weed control at 250 g/ha: rate 250 g/ha
In short: as §1

[8] = test system: Echinochloa crus-galli (ECHCG); test: as above; conditions: 312 h, evaluated after 13 days, read-out: Pre-emergence activity ECHCG (100=total damage to plant; 0=no damage to plant); for pest or weed control at 1000 g/ha: rate 1000 g/ha; for pest or weed control at 250 g/ha: rate 250 g/ha
In short: as §1

[9] = test system: Amaranthus retroflexus (AMARE); test: as above; conditions: 312 h, evaluated after 13 days, read-out: Pre-emergence activity AMARE (100=total damage to plant; 0=no damage to plant); for pest or weed control at 1000 g/ha: rate 1000 g/ha; for pest or weed control at 250 g/ha: rate 250 g/ha
In short: as §1

Avena fatua (AVEFA) [10] = test: as above; conditions: 312 h, evaluated after 13 days, read-out: Pre-emergence activity AVEFA (100=total damage to plant; 0=no damage to plant); for pest or weed control at 1000 g/ha: rate 1000 g/ha; for pest or weed control at 250 g/ha: rate 250 g/ha
In short: as §1

Solanum nigrum (SOLNI) [11] = test: as above; conditions: 312 h, evaluated after 13 days, read-out: Pre-emergence activity SOLNI (100=total damage to plant; 0=no damage to plant); for pest or weed control at 1000 g/ha: rate 1000 g/ha; for pest or weed control at 250 g/ha: rate 250 g/ha
In short: as §1

Setaria faberi (SETFA) [12] = test: as above; conditions: 312 h, evaluated after 13 days, read-out: Pre-emergence activity SETFA (100=total damage to plant; 0=no damage to plant); for pest or weed control at 1000 g/ha: rate 1000 g/ha; for pest or weed control at 250 g/ha: rate 250 g/ha
In short: as §1

| SMILES | pest or weed control at 1000 g/ha [1] [%] | pest or weed control at 1000 g/ha [2] [%] | pest or weed control at 1000 g/ha [3] [%] | pest or weed control at 1000 g/ha (Avena fatua (AVEFA) [4]) [%] | pest or weed control at 1000 g/ha (Solanum nigrum (SOLNI) [5]) [%] | pest or weed control at 1000 g/ha (Setaria faberi (SETFA) [6]) [%] | pest or weed control at 1000 g/ha [7] [%] | pest or weed control at 1000 g/ha [8] [%] | pest or weed control at 1000 g/ha [9] [%] | pest or weed control at 1000 g/ha (Avena fatua (AVEFA) [10]) [%] | pest or weed control at 1000 g/ha (Solanum nigrum (SOLNI) [11]) [%] | pest or weed control at 1000 g/ha (Setaria faberi (SETFA) [12]) [%] | pest or weed control at 250 g/ha [1] [%] | pest or weed control at 250 g/ha [2] [%] | pest or weed control at 250 g/ha [3] [%] | pest or weed control at 250 g/ha (Avena fatua (AVEFA) [4]) [%] | pest or weed control at 250 g/ha (Solanum nigrum (SOLNI) [5]) [%] | pest or weed control at 250 g/ha (Setaria faberi (SETFA) [6]) [%] | pest or weed control at 250 g/ha [7] [%] | pest or weed control at 250 g/ha [8] [%] | also measured |
| --- | --- | --- | --- | --- | --- | --- | --- | --- | --- | --- | --- | --- | --- | --- | --- | --- | --- | --- | --- | --- | --- |
| Cc1ccc(-c2ccc(Cl)cc2)cc1C1=C(O)C2(CCOCC2)OCC1=O (single isomer, unassigned) [Compound A-37] | 70 | 90 | 0 | 30 | 70 | 80 | 40 | 30 | 0 | 20 | 0 | 20 |  |  |  |  |  |  |  |  |  |
| Cc1ccc(-c2ccc(F)c(F)c2)cc1C1=C(O)C(C)(C)OC(C)(C)C1=O [Compound A-24] | 100 | 100 | 90 | 80 | 70 | 100 | 80 | 100 | 20 | 60 | 20 | 90 |  |  |  |  |  |  |  |  |  |
| Cc1ccc(-c2ccc(Cl)cc2F)cc1C1=C(O)C(C)(C)C(=O)C(C)(C)C1=O [Compound B-18] |  |  |  |  |  |  |  |  |  |  |  |  | 10 | 60 | 0 | 0 | 0 | 70 | 40 | 0 | pest or weed control at 250 g/ha [9]: 0%; pest or weed control at 250 g/ha (Avena fatua (AVEFA) [10]): 0%; pest or weed control at 250 g/ha (Solanum nigrum (SOLNI) [11]): 0%; pest or weed control at 250 g/ha (Setaria faberi (SETFA) [12]): 20% |
| Cc1ccc(-c2ccc(Cl)nc2C)cc1C1=C(O)C(C)(C)C(=O)C(C)(C)C1=O [Compound B-6] | 20 | 50 | 0 | 0 | 0 | 30 | 0 | 0 | 100 | 0 | 90 | 0 |  |  |  |  |  |  |  |  |  |
| CCc1ccc(-c2ccc(Cl)nc2)cc1C1=C(O)C(C)(C)C(=O)C(C)(C)C1=O [Compound B-9] |  |  |  |  |  |  |  |  |  |  |  |  | 40 | 80 | 40 | 0 | 20 | 70 | 0 | 0 | pest or weed control at 250 g/ha [9]: 0%; pest or weed control at 250 g/ha (Avena fatua (AVEFA) [10]): 0%; pest or weed control at 250 g/ha (Solanum nigrum (SOLNI) [11]): 0%; pest or weed control at 250 g/ha (Setaria faberi (SETFA) [12]): 0% |
| Cc1ccc(-c2ccc(Cl)nc2Cl)cc1C1=C(O)C(C)(C)OC(C)(C)C1=O [Compound A-58] | 90 | 100 | 70 | 90 | 30 | 90 | 80 | 100 | 20 | 60 | 20 | 100 |  |  |  |  |  |  |  |  |  |
